Source: patent publication US7964727B2, “Quinolonecarboxylic acid compounds having 5-HT4 receptor agonistic activity” (Pfizer Inc., priority 2003, dated 2011)
Counter-ions that a name gives are not always drawn.

melting point	SMILES
275.7 °C	CC(C)n1c(=O)c(C(=O)NCC2CCN(CC3(O)CCOCC3)CC2)cc2c(F)cccc21 (as salt: hydrochloride)
240.7 °C	Cc1cccc2c1cc(C(=O)NCC1CCN(CC3CCNCC3)CC1)c(=O)n2C(C)C (as salt: hydrochloride)
222 °C	Cc1cccc2c1cc(C(=O)NCC1CCN(CC3(O)CCOCC3)CC1)c(=O)n2C(C)C
227 °C	CC(C)n1c(=O)c(C(=O)NCC2CCN(CC3(O)CCOCC3)CC2)cc2c(Cl)cccc21
